Source: PubChem BioAssay (NCI)
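The compound was tested at five concentrations on cells cultured in 96-well plates, with a 48-hour exposure period. Here, GI50 denotes the concentration required for 50% inhibition of growth. TGI: concentration producing complete growth inhibition.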

Columns and labels:
Test in all cases: NCI-60 cell line screen, 48 h
DLD-1 colon = test system: DLD-1 colon
SNB-75 CNS = test system: SNB-75 CNS
M19-MEL melanoma = test system: M19-MEL melanoma
KM12 colon = test system: KM12 colon
DMS 114 small cell lung = test system: DMS 114 small cell lung
CCRF-CEM leukemia = test system: CCRF-CEM leukemia
HCC-2998 colon = test system: HCC-2998 colon
CAKI-1 renal = test system: CAKI-1 renal
SF-539 CNS = test system: SF-539 CNS
MDA-MB-231 breast = test system: MDA-MB-231 breast
NCI/ADR-RES ovarian = test system: NCI/ADR-RES ovarian

In the case of `COc1ccc(-c2cc(=O)c3cc(OC)ccc3[nH]2)cc1`, the TGI (DLD-1 colon) was greater than 100 µM, the TGI (SNB-75 CNS) was greater than 100 µM and the TGI (M19-MEL melanoma) was greater than 100 µM. It also gave a TGI (KM12 colon) greater than 100 µM, a TGI (DMS 114 small cell lung) greater than 100 µM and a TGI (CCRF-CEM leukemia) greater than 100 µM. It also gave a TGI (HCC-2998 colon) greater than 100 µM.
For `Cc1cc(/C=C/c2cc[n+](C)c3ccccc23)c(O)c2ncccc12`, the TGI (DLD-1 colon) was 22.5 µM, the TGI (SNB-75 CNS) was 24 µM and the TGI (CAKI-1 renal) was 27.6 µM. The TGI (SF-539 CNS) was 1.99 µM, the TGI (M19-MEL melanoma) was 8.52 µM and the TGI (KM12 colon) was 18.6 µM. For the same compound, the TGI (DMS 114 small cell lung) was 1.8 µM, the TGI (CCRF-CEM leukemia) was greater than 37.7 µM and the TGI (HCC-2998 colon) was 14.5 µM.
Work on `COc1ccccc1-c1cc(=O)c2cc3c(cc2[nH]1)OCO3` yielded a TGI (DLD-1 colon) greater than 100 µM, a TGI (SNB-75 CNS) greater than 100 µM and a TGI (SF-539 CNS) of 70.6 µM. It also gave a TGI (M19-MEL melanoma) greater than 100 µM, a GI50 (DMS 114 small cell lung) of 25 µM and a TGI (DMS 114 small cell lung) greater than 100 µM. It also gave a TGI (CCRF-CEM leukemia) greater than 100 µM and a TGI (HCC-2998 colon) greater than 100 µM.
`Cc1c(N2CCN(C)CC2)nc2ccc(Cl)cc2c1-c1ccccc1` was tested, and the TGI (SNB-75 CNS) was 36.5 µM, the TGI (CAKI-1 renal) was 41.6 µM and the TGI (SF-539 CNS) was 33.9 µM. The TGI (KM12 colon) was 28.5 µM, the TGI (DMS 114 small cell lung) was 31 µM and the TGI (CCRF-CEM leukemia) was 42.2 µM. The TGI (HCC-2998 colon) was greater than 10 µM.
For `CSc1nc(NC2OC(COC(C)=O)C(OC(C)=O)C(OC(C)=O)C2OC(C)=O)c2c(n1)OCC2=O` (stereo not drawn), the TGI (DLD-1 colon) was greater than 100 µM, the TGI (SNB-75 CNS) was greater than 100 µM and the TGI (CAKI-1 renal) was greater than 100 µM. For the same compound, the TGI (SF-539 CNS) was greater than 100 µM, the TGI (M19-MEL melanoma) was greater than 100 µM and the TGI (KM12 colon) was greater than 100 µM. It also gave a TGI (DMS 114 small cell lung) greater than 100 µM and a TGI (CCRF-CEM leukemia) greater than 100 µM.
Compound `O=C(Nc1ccc(-n2ccc3c(NC(=O)c4ccccc4)ncnc32)cc1)Nc1ccc(Cl)c(Cl)c1` has a GI50 (MDA-MB-231 breast) of 4.11 µM, a TGI (MDA-MB-231 breast) of 11 µM and a GI50 (SNB-75 CNS) of 1.03 µM. For the same compound, the TGI (SNB-75 CNS) was 5.27 µM, the GI50 (NCI/ADR-RES ovarian) was 10.3 µM and the TGI (NCI/ADR-RES ovarian) was 50 µM. It also gave a GI50 (CAKI-1 renal) of 8.79 µM, a TGI (CAKI-1 renal) of 21.2 µM and a GI50 (SF-539 CNS) of 1.32 µM. For the same compound, the TGI (SF-539 CNS) was 10.3 µM, the GI50 (KM12 colon) was 1.8 µM and the TGI (KM12 colon) was 6.67 µM. The GI50 (CCRF-CEM leukemia) was 0.987 µM, the TGI (CCRF-CEM leukemia) was 2.83 µM and the GI50 (HCC-2998 colon) was 5.34 µM. For the same compound, the TGI (HCC-2998 colon) was 20.7 µM.
In the case of `O=c1c2cc3c(=O)n4c(cc(-c5ccccc5)c5cc(Cl)ccc54)nc3cc2nc2cc(-c3ccccc3)c3cc(Cl)ccc3n12`, the TGI (MDA-MB-231 breast) was greater than 100 µM, the TGI (SNB-75 CNS) was greater than 100 µM and the TGI (NCI/ADR-RES ovarian) was greater than 100 µM. For the same compound, the TGI (CAKI-1 renal) was greater than 100 µM, the TGI (SF-539 CNS) was greater than 100 µM and the TGI (KM12 colon) was greater than 100 µM. The TGI (CCRF-CEM leukemia) was greater than 100 µM and the TGI (HCC-2998 colon) was greater than 100 µM.
`Cc1cc(Cc2cc(C)c(NC(=O)C(=O)C3CCC4=C(SC5C=CC=CC5N4)C3=O)c(C(C)C)c2)cc(C(C)C)c1NC(=O)C(=O)C1CCC2=C(SC3C=CC=CC3N2)C1=O` (stereo not drawn) was tested, and the TGI (MDA-MB-231 breast) was greater than 100 µM, the TGI (SNB-75 CNS) was greater than 100 µM and the TGI (NCI/ADR-RES ovarian) was greater than 100 µM. It also gave a TGI (CAKI-1 renal) greater than 100 µM, a TGI (SF-539 CNS) greater than 100 µM and a TGI (KM12 colon) greater than 100 µM. It also gave a TGI (CCRF-CEM leukemia) greater than 100 µM and a TGI (HCC-2998 colon) greater than 100 µM.
Compound `CC(C)NC(=O)OCc1c(CO)c2c(n1C)-c1ccccc1CC2` has a TGI (DLD-1 colon) of 46.4 µM, a TGI (SNB-75 CNS) greater than 100 µM and a TGI (NCI/ADR-RES ovarian) of 61.4 µM. The TGI (CAKI-1 renal) was 29.7 µM, the TGI (SF-539 CNS) was 57.3 µM and the TGI (M19-MEL melanoma) was 59.3 µM. For the same compound, the TGI (KM12 colon) was greater than 86.8 µM, the TGI (DMS 114 small cell lung) was 40.7 µM and the TGI (CCRF-CEM leukemia) was 45.2 µM. For the same compound, the TGI (HCC-2998 colon) was 57.4 µM.
`CCOC(=O)C(Cc1ccc(OC(=O)c2ccc(OC)cc2)cc1)NC(=O)C(F)(F)F` (stereo not drawn) gave a TGI (MDA-MB-231 breast) greater than 100 µM, a TGI (SNB-75 CNS) of 46.5 µM and a TGI (NCI/ADR-RES ovarian) greater than 100 µM. For the same compound, the TGI (CAKI-1 renal) was greater than 100 µM, the TGI (SF-539 CNS) was greater than 100 µM and the TGI (KM12 colon) was greater than 100 µM. For the same compound, the TGI (CCRF-CEM leukemia) was greater than 100 µM and the TGI (HCC-2998 colon) was greater than 100 µM.
`COc1ccc(/C(Cl)=C(\C=N/O)c2ccc(OC)c(OC)c2)cc1OC` was tested, and the TGI (DLD-1 colon) was greater than 100 µM, the TGI (SNB-75 CNS) was greater than 100 µM and the TGI (CAKI-1 renal) was greater than 100 µM. It also gave a TGI (SF-539 CNS) greater than 100 µM, a TGI (M19-MEL melanoma) greater than 100 µM and a TGI (KM12 colon) greater than 100 µM. It also gave a TGI (DMS 114 small cell lung) greater than 100 µM, a TGI (CCRF-CEM leukemia) greater than 100 µM and a TGI (HCC-2998 colon) greater than 100 µM.
`O=c1[nH]nc(-c2ccccc2)n1/N=C/c1cccs1` gave a TGI (MDA-MB-231 breast) greater than 100 µM, a TGI (SNB-75 CNS) greater than 100 µM and a TGI (NCI/ADR-RES ovarian) of 93.8 µM. It also gave a TGI (CAKI-1 renal) greater than 100 µM, a TGI (SF-539 CNS) greater than 100 µM and a TGI (KM12 colon) greater than 100 µM. The TGI (CCRF-CEM leukemia) was greater than 100 µM and the TGI (HCC-2998 colon) was greater than 100 µM.
Work on `CC1(C)Cc2nc3c(cc2C(=O)C1C=N/C(C#N)=C(\N)C#N)C(=O)C(C=N/C(C#N)=C(\N)C#N)C(C)(C)C3` (stereo not drawn) yielded a TGI (MDA-MB-231 breast) of 22.1 µM, a TGI (SNB-75 CNS) of 4.17 µM and a TGI (NCI/ADR-RES ovarian) greater than 42 µM. The TGI (CAKI-1 renal) was 3.54 µM, the TGI (SF-539 CNS) was 2.41 µM and the TGI (KM12 colon) was 3.38 µM. The TGI (CCRF-CEM leukemia) was greater than 100 µM and the TGI (HCC-2998 colon) was 10.3 µM.
Compound `NC(=O)NCCCC(NC(=O)OCCCCCCn1ccc(=O)[nH]c1=O)C(=O)O` (stereo not drawn) has a TGI (MDA-MB-231 breast) greater than 100 µM, a TGI (SNB-75 CNS) greater than 100 µM and a TGI (NCI/ADR-RES ovarian) greater than 100 µM. The TGI (CAKI-1 renal) was greater than 100 µM, the TGI (SF-539 CNS) was greater than 100 µM and the TGI (KM12 colon) was greater than 100 µM. The TGI (CCRF-CEM leukemia) was greater than 100 µM and the TGI (HCC-2998 colon) was greater than 100 µM.
Compound `CN(/N=C/c1cccc2cccnc12)c1ccc(Cl)cc1[N+](=O)[O-]` has a TGI (MDA-MB-231 breast) greater than 100 µM, a TGI (SNB-75 CNS) greater than 100 µM and a TGI (NCI/ADR-RES ovarian) greater than 100 µM. For the same compound, the TGI (CAKI-1 renal) was greater than 100 µM, the TGI (SF-539 CNS) was greater than 100 µM and the TGI (KM12 colon) was greater than 100 µM. For the same compound, the TGI (CCRF-CEM leukemia) was greater than 100 µM and the TGI (HCC-2998 colon) was greater than 100 µM.
Work on `COc1cc(NCCC2CCCCN2)c2ncccc2c1` (stereo not drawn) yielded a TGI (MDA-MB-231 breast) greater than 92.1 µM, a TGI (SNB-75 CNS) greater than 100 µM and a TGI (NCI/ADR-RES ovarian) greater than 100 µM. The TGI (CAKI-1 renal) was greater than 100 µM, the TGI (SF-539 CNS) was greater than 100 µM and the TGI (KM12 colon) was greater than 100 µM. The TGI (CCRF-CEM leukemia) was greater than 66.3 µM and the TGI (HCC-2998 colon) was 30.7 µM.
Work on `CC1=C(c2ccccc2)NC(=S)C(C)C(c2ccccc2)=N1` (stereo not drawn) yielded a TGI (MDA-MB-231 breast) greater than 100 µM, a TGI (SNB-75 CNS) greater than 100 µM and a TGI (NCI/ADR-RES ovarian) greater than 100 µM. For the same compound, the TGI (CAKI-1 renal) was greater than 100 µM, the TGI (SF-539 CNS) was 30.9 µM and the TGI (KM12 colon) was greater than 100 µM. It also gave a TGI (CCRF-CEM leukemia) of 47.1 µM and a TGI (HCC-2998 colon) greater than 100 µM.
With `O=C1C2=C(CC3=C(C2)CS(=O)(=O)C3)C(=O)C2=C1CC1=C(C2)CS(=O)(=O)C1` the TGI (MDA-MB-231 breast) was 27.3 µM, the TGI (SNB-75 CNS) was greater than 41 µM and the TGI (NCI/ADR-RES ovarian) was 66.5 µM. For the same compound, the TGI (CAKI-1 renal) was greater than 69.5 µM, the TGI (SF-539 CNS) was greater than 75.2 µM and the TGI (KM12 colon) was greater than 40.8 µM. The TGI (CCRF-CEM leukemia) was 34.3 µM and the TGI (HCC-2998 colon) was greater than 51.6 µM.
Compound `N#Cc1c(N2CCC(O)C2)c2ccccc2n2c1nc1ccccc12` (stereo not drawn) has a TGI (MDA-MB-231 breast) of 60.1 µM, a TGI (SNB-75 CNS) of 62.9 µM and a TGI (NCI/ADR-RES ovarian) greater than 100 µM. The TGI (CAKI-1 renal) was greater than 100 µM, the TGI (SF-539 CNS) was greater than 100 µM and the TGI (KM12 colon) was greater than 100 µM. It also gave a TGI (CCRF-CEM leukemia) greater than 100 µM and a TGI (HCC-2998 colon) greater than 100 µM.
Work on `COc1ccc(/C=C2\CCS(=O)(=O)c3ccccc3C2=O)cc1` yielded a TGI (MDA-MB-231 breast) of 75.3 µM, a TGI (SNB-75 CNS) greater than 100 µM and a TGI (NCI/ADR-RES ovarian) of 50 µM. The TGI (CAKI-1 renal) was 67.5 µM, the TGI (SF-539 CNS) was 67.4 µM and the TGI (KM12 colon) was 31 µM. The TGI (CCRF-CEM leukemia) was 68.5 µM and the TGI (HCC-2998 colon) was 38.6 µM.
`CCOC(=O)C1(C(=O)OCC)OC(C)=NC1(C(=O)OC)C(=O)OC` gave a TGI (MDA-MB-231 breast) greater than 100 µM, a TGI (SNB-75 CNS) of 98.1 µM and a TGI (NCI/ADR-RES ovarian) greater than 100 µM. It also gave a TGI (CAKI-1 renal) greater than 100 µM, a TGI (SF-539 CNS) greater than 100 µM and a TGI (KM12 colon) greater than 100 µM. The TGI (CCRF-CEM leukemia) was greater than 100 µM and the TGI (HCC-2998 colon) was greater than 100 µM.
